One block for each molecule: values may come before it.
Experiments:
[1] = system: Malignant meningioma; settings: clinical, cited from earlier work; for partial response (PR) rate: malignant meningioma
[2] = system: IOMM-Lee malignant meningioma cell line; assay: Growth inhibition experiment; assay type: cell-based; settings: read-out: IC50 value
[3] = system: HKBMM malignant meningioma cell line; assay: Growth inhibition experiment; assay type: cell-based; settings: read-out: IC50 value
[4] = system: blood-brain barrier (BBB); settings: cited from earlier work
[5] = Tissue distribution: blood concentration and brain distribution by HPLC; assay type: in vivo, C57BL/6 (B6) mice; settings: male, C57BL/6, mouse, intraperitoneal, 2 mg/kg

SMILES: CC#C[C@]1(O)CC[C@H]2[C@@H]3CCC4=CC(=O)CCC4=C3[C@@H](c3ccc(N(C)C)cc3)C[C@@]21C [mifepristone]
partial response (PR) rate [1]: 1.4%-30.76%

SMILES: CCN(CC)CCNC(=O)c1c(C)[nH]c(/C=C2\C(=O)Nc3ccc(F)cc32)c1C [Sunitinib]
6-month progression-free survival rate ([1]; meningioma): 42%
PR rate ([1]; meningioma): 5.55%

SMILES: NC(=O)NO [hydroxyurea]
partial response (PR) rate [1]: 0%-10%

SMILES: CC/C(=C(\c1ccccc1)c1ccc(OCCN(C)C)cc1)c1ccccc1 [tamoxifen]
partial response (PR) rate [1]: 5%-16.66%

IC50 [2]: 13.3 µM
IC50 [3]: 20 µM
SMILES: COc1cc(/C=C/C(=O)CC(=O)/C=C/c2ccc(O)c(OC)c2)ccc1O [curcumin, Curcumin, reference compound]
permeability across the blood-brain barrier (BBB) [4]: 0.60 ± 0.67 × 10^−6 cm/s

IC50 [2]: 4.3 µM
IC50 [3]: 4.5 µM
SMILES: COc1cc(C=CC(=O)C=Cc2ccc(O)c(OC)c2)ccc1O [GO-Y022, 1,5-bis (4-hydroxy-3-methoxyphenyl)-1,4-pentadiene-3-one]
permeability across the blood-brain barrier (BBB) [4]: 8.2 ± 1.3 × 10^−6 cm/s

concentration at 1 h ([5]; brain): 0 ng/g
concentration at 3 h ([5]; brain): 26.8 ng/g
concentration at 6 h ([5]; brain): 23.1 ng/g
concentration at 1 h ([5]; serum): 18 ng/mL
concentration at 3 h ([5]; serum): 46.7 ng/mL
concentration at 6 h ([5]; serum): 58.2 ng/mL
SMILES: COCOc1cc(/C=C/C(=O)/C=C/c2cc(OCOC)cc(OCOC)c2)cc(OCOC)c1 [GO-Y030, (1E,4E)-1,5-bis [3,5-bis (methoxymethoxy)phenyl] penta-1,4-dien-3-one]

Reference: paper PMC12019622 (World Journal of Experimental Medicine, 2025)
